According to patent publication US11033577B2, “Polymer conjugate of hexa-coordinated platinum complex” (priority 2015, dated 2021):

What was measured:
Type in all cases: in vivo, BALB/cA-nu/nu mouse
Conditions in all cases: caudal vein
[1] = tested on: Human stomach cancer 4-1ST; test: Antitumor Test 1, human stomach cancer 4-1ST transplanted mouse
Text: (§1) Human stomach cancer 4-1ST was subcultured subcutaneously in a BALB/cA-nu/nu mouse (hereinafter, nude mouse). Human stomach cancer 4-1ST was obtained from the Central Institute for Experimental Animals.
Human stomach cancer 4-1ST was collected subcutaneously from a nude mouse and was finely cut into blocks each measuring about 3 mm on each side. The tumor blocks thus obtained were subcutaneously transplanted into the dorsal side of nude mice using a trocar. On the 15th day after transplantation, where the average tumor volume had reached about 100 to 200 mm^3, various drugs were administered through the caudal vein. The use and dose (in terms of drug) of the various administered drugs are as follows. In regard to the Example 1 compound, the compound was dissolved in a 5% glucose injectable solution, and the solution was administered once at a dose of 25 mg/kg or 12.5 mg/kg. In regard to the Example 2 compound, the compound was dissolved in a 5% glucose injectable solution, and the solution was administered once at a dose of 25 mg/kg or 12.5 mg/kg. In regard to the Example 3 compound, the compound was dissolved in a 5% glucose injectable solution, and the solution was administered once at a dose of 20 mg/kg or 10 mg/kg. In regard to the Example 4 compound, the compound was dissolved in a 5% glucose injectable solution, and the solution was administered once at a dose of 20 mg/kg or 10 mg/kg. In regard to the Example 5 compound, the compound was dissolved in a 5% glucose injectable solution, and the solution was administered once at a dose of 20 mg/kg or 10 mg/kg. As a control drug, l-OHP was administered once at a dose of 20 mg/kg, and cisplatin was administered once at a dose of 10 mg/kg. Regarding the amounts of administration of l-OHP and cisplatin and the high amounts of administration of the various Example compounds, the maximum tolerable doses (MTD doses) were employed for all of the compounds. After the administration, the major axis (L) and the minor axis (W) of the tumor were measured over time using calipers, and the tumor volume (L×W×W×0.5) was calculated. The test was performed by employing four animals per group for all of a non-administered group as well as various drug-administered groups. During the period from the initiation of administration to the 21st day after administration, the relative tumor volume (T/C (%)) of each drug-administered group based on the relative tumor volume of a non-drug-administered group as 100 was calculated by the following formula as an index for the antitumor effect. T/C(%)=Relative tumor volume of administered group/relative tumor volume of non-administered group×100 Formula: […]

[2] = tested on: Human stomach cancer 4-1ST; test: Antitumor Test 2, human stomach cancer 4-1ST transplanted mouse
Text: as §1
(§2) Human stomach cancer 4-1ST was collected subcutaneously from a nude mouse and was cut into blocks each measuring about 3 mm on each side. The tumor blocks thus obtained were transplanted subcutaneously on the dorsal side of nude mice using a trocar. On the 17th day after transplantation, where the average tumor volume had reached about 100 to 200 mm^3, various drugs were administered through the caudal vein. The use and dose (in terms of drug) of the various administered drugs are as follows. In regard to the Example 11 compound, the compound was dissolved in a 5% glucose injectable solution, and the solution was administered once at a dose of 15 mg/kg or 7.5 mg/kg. In regard to the Example 12 compound, the compound was dissolved in a 5% glucose injectable solution, and the solution was administered once at a dose of 30 mg/kg or 15 mg/kg. As a control drug, l-OHP was administered once at a dose of 18 mg/kg, and cisplatin was administered once at a dose of 10 mg/kg. Regarding the amounts of administration of l-OHP and cisplatin and the high amounts of administration of the various Example compounds, the maximum tolerable doses (MTD doses) were employed for all of the compounds. After the administration, the major axis (L) and the minor axis (W) of the tumor were measured over time using calipers, and the tumor volume (L×W×W×0.5) was calculated. The test was performed by employing four animals per group for all of a non-administered group as well as various drug-administered groups. During the period from the initiation of administration to the 21st day after administration, the relative tumor volume (T/C (%)) of each drug-administered group based on the relative tumor volume of a non-drug-administered group as 100 was calculated by the following formula as an index for the antitumor effect. T/C(%)=Relative tumor volume of administered group/relative tumor volume of non-administered group×100 Formula: […]

[3] = tested on: Human stomach cancer 4-1ST; test: Antitumor Test 3, human stomach cancer 4-1ST transplanted mouse
Text: as §1
as §2, with “20th” for “17th”, “7” for “11”, “16” for “12”, “18 mg/kg or 9” for “18”

With `N.N.[Cl][Pt][Cl]` [Cisplatin, cisplatin] the “T/C (%) in various numbers of days after administration” value (“T/C (%) in various numbers of days” below) ([1]; 10 mg/kg once, day 0) was 100%, the “T/C (%) in various numbers of days” value ([1]; 10 mg/kg once, day 3) was 68% and the “T/C (%) in various numbers of days” value ([1]; 10 mg/kg once, day 5) was 50%. The “T/C (%) in various numbers of days” value ([1]; 10 mg/kg once, day 7) was 33%, the “T/C (%) in various numbers of days” value ([1]; 10 mg/kg once, day 10) was 33% and the “T/C (%) in various numbers of days” value ([1]; 10 mg/kg once, day 14) was 29%. For the same compound, the “T/C (%) in various numbers of days” value ([1]; 10 mg/kg once, day 17) was 26%, the “T/C (%) in various numbers of days” value ([1]; 10 mg/kg once, day 21) was 22% and the “T/C (%) in various numbers of days” value ([2]; 10 mg/kg once, day 0) was 100%. For the same compound, the “T/C (%) in various numbers of days” value ([2]; 10 mg/kg once, day 4) was 77%, the “T/C (%) in various numbers of days” value ([2]; 10 mg/kg once, day 7) was 43% and the “T/C (%) in various numbers of days” value ([2]; 10 mg/kg once, day 11) was 32%. For the same compound, the “T/C (%) in various numbers of days” value ([2]; 10 mg/kg once, day 14) was 36%, the “T/C (%) in various numbers of days” value ([2]; 10 mg/kg once, day 18) was 37% and the “T/C (%) in various numbers of days” value ([2]; 10 mg/kg once, day 21) was 42%. For the same compound, the “T/C (%) in various numbers of days” value ([3]; 10 mg/kg once, day 0) was 100%, the “T/C (%) in various numbers of days” value ([3]; 10 mg/kg once, day 4) was 47% and the “T/C (%) in various numbers of days” value ([3]; 10 mg/kg once, day 7) was 22%. For the same compound, the “T/C (%) in various numbers of days” value ([3]; 10 mg/kg once, day 11) was 17%, the “T/C (%) in various numbers of days” value ([3]; 10 mg/kg once, day 14) was 16% and the “T/C (%) in various numbers of days” value ([3]; 10 mg/kg once, day 18) was 20%. For the same compound, the “T/C (%) in various numbers of days” value ([3]; 10 mg/kg once, day 21) was 19%.

For `O=C1[O][Pt]2([NH][C@@H]3CCCC[C@H]3[NH]2)[O]C1=O` [l-OHP, oxaliplatin], the “T/C (%) in various numbers of days” value ([1]; 20 mg/kg once, day 0) was 100%, the “T/C (%) in various numbers of days” value ([1]; 20 mg/kg once, day 3) was 72% and the “T/C (%) in various numbers of days” value ([1]; 20 mg/kg once, day 5) was 57%. The “T/C (%) in various numbers of days” value ([1]; 20 mg/kg once, day 7) was 49%, the “T/C (%) in various numbers of days” value ([1]; 20 mg/kg once, day 10) was 49% and the “T/C (%) in various numbers of days” value ([1]; 20 mg/kg once, day 14) was 45%. For the same compound, the “T/C (%) in various numbers of days” value ([1]; 20 mg/kg once, day 17) was 46%, the “T/C (%) in various numbers of days” value ([1]; 20 mg/kg once, day 21) was 41% and the “T/C (%) in various numbers of days” value ([2]; 18 mg/kg once, day 0) was 100%. The “T/C (%) in various numbers of days” value ([2]; 18 mg/kg once, day 4) was 84%, the “T/C (%) in various numbers of days” value ([2]; 18 mg/kg once, day 7) was 52% and the “T/C (%) in various numbers of days” value ([2]; 18 mg/kg once, day 11) was 50%. For the same compound, the “T/C (%) in various numbers of days” value ([2]; 18 mg/kg once, day 14) was 50%, the “T/C (%) in various numbers of days” value ([2]; 18 mg/kg once, day 18) was 60% and the “T/C (%) in various numbers of days” value ([2]; 18 mg/kg once, day 21) was 57%. The “T/C (%) in various numbers of days” value ([3]; 9 mg/kg once, day 0) was 100%, the “T/C (%) in various numbers of days” value ([3]; 9 mg/kg once, day 4) was 81% and the “T/C (%) in various numbers of days” value ([3]; 9 mg/kg once, day 7) was 74%. The “T/C (%) in various numbers of days” value ([3]; 9 mg/kg once, day 11) was 75%, the “T/C (%) in various numbers of days” value ([3]; 9 mg/kg once, day 14) was 79% and the “T/C (%) in various numbers of days” value ([3]; 9 mg/kg once, day 18) was 77%. The “T/C (%) in various numbers of days” value ([3]; 9 mg/kg once, day 21) was 87%, the “T/C (%) in various numbers of days” value ([3]; 18 mg/kg once, day 0) was 100% and the “T/C (%) in various numbers of days” value ([3]; 18 mg/kg once, day 4) was 60%. For the same compound, the “T/C (%) in various numbers of days” value ([3]; 18 mg/kg once, day 7) was 37%, the “T/C (%) in various numbers of days” value ([3]; 18 mg/kg once, day 11) was 36% and the “T/C (%) in various numbers of days” value ([3]; 18 mg/kg once, day 14) was 47%. The “T/C (%) in various numbers of days” value ([3]; 18 mg/kg once, day 18) was 50% and the “T/C (%) in various numbers of days” value ([3]; 18 mg/kg once, day 21) was 52%.
